Assay results taken from patent publication US10934297B2, “5-heteroaryl substituted indazole-3-carboxamides and preparation and use thereof” (Samumed, LLC, priority 2018, dated 2021).

Key:
[1] = test system: Wnt activity (Sp5-Luc reporter in SW480 cells); assay: Screening assay for Wnt activity: Sp5-Luc reporter gene assay in SW480 colon carcinoma cells; type: cell-based, human; conditions: Homo sapiens, 36 to 48 hours
Procedure, shortened: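 EC50 values come from a variable-slope four-parameter fit of luminescence normalized to DMSO-only wells. The read-out follows 36–48 h incubation at 37 °C, 5% CO2, in DMEM containing 1% fetal bovine serum. Cells are hygromycin-selected SW480 stably expressing firefly luciferase under a Wnt-responsive Sp5 promoter (eight TCF/LEF sites).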

DYRK1A kinase = DYRK1A kinase (Homo sapiens (Human), UniProt Q13627); assay: DYRK1A kinase assay (Ser/Thr 18 peptide Z-lyte FRET); type: biochemical; conditions: read-out: EC50 (method: IC50)
Procedure, shortened: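 Kinase reactions with compound ran 1 h at room temperature in duplicate, and development reagent was then added for another hour.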

GSK3β kinase = GSK3β kinase (Homo sapiens (Human), UniProt P49841); assay: GSK3β kinase assay (Ser/Thr 09 peptide Z-lyte FRET); type: biochemical; conditions: read-out: EC50 (method: IC50)
Procedure, shortened: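 Non-radioactive Z-lyte FRET read-out, kinase activity expressed as coumarin/fluorescein emission ratio. Compounds incubated with the reaction mixture one hour at room temperature in duplicate, then development buffer added for another hour. IC50 from non-linear regression of dose-response curves.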

[2] = test system: SW480 colon carcinoma cells; assay: Cell viability assay (CellTiter-Glo) in SW480 colon carcinoma cells; type: cell-based, human; conditions: Homo sapiens, 96 h, four days
Procedure, shortened: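 Viability was taken from CellTiter-Glo ATP luminescence, read about 12 min after reagent addition, relative to DMSO controls. The cells were Sp5-Luc reporter SW480 colon carcinoma cells, 2,000/well in 1% FBS DMEM, exposed to compound for four days at 37 °C.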

[3] = test system: primary human fibroblasts derived from IPF patients (LL29 cells); assay: Inhibition of the fibrotic process: αSMA staining in TGF-β1 treated LL29 fibroblasts; type: cell-based; conditions: Homo sapiens, Fibroblast, 96 h; LL29 cells, TGF-β1 20 ng/mL, 4 days, % αSMA positive cells
Procedure, shortened: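 LL29 fibroblasts from IPF patients, in F12 medium with 1% FBS, treated with TGF-β1 plus compound; TGF-β1 with DMSO as positive control, DMSO alone as negative control. After 4 days' incubation, SYTOX green nucleic acid stain added at 1 μM final, 30 min at room temperature.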

IL-6 = IL-6 inhibition in LPS-stimulated human peripheral blood mononuclear cells (HTRF); type: cell-based; conditions: Homo sapiens, PBMC; huPBMCs, LPS 50 ng/mL, 22 hours, IL-6 HTRF
Procedure, shortened: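 HTRF 665/620 nm ratio, read after 3 h antibody incubation at room temperature, quantified IL-6 released by fresh human PBMCs (1×10e6 cells/mL, 1% FBS-RPMI). The cells got compound, then 50 ng/mL LPS at 2 h, followed by a further 22 h at 37° C. EC50 came from DMSO-normalized readings run in duplicate.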

[4] = test system: primary human mesenchymal stem cells (hMSCs); assay: Tenocyte differentiation assay (SCXA-positive cells) in hMSCs; type: cell-based; conditions: for EC50: Homo sapiens, Mesenchymal stem cells, 96 h, hMSCs, 4 days, SCXA positive cells; for percent in parentheses under EC50 >100: given for EC50 >100 μM, meaning not defined in this example
Procedure, shortened: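 Passage 3–6 hMSCs were compound-treated, fixed in 4% formaldehyde and stained overnight at 4 °C with anti-SCXA antibody; SCXA-positive cells were counted by imaging. Counts were normalized to the mean of 12 DMSO wells as fold change, averaged over 3 replicate wells per concentration, and curve-fitted for EC50.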

Chain of GSK3β kinase (P49841 whole entry): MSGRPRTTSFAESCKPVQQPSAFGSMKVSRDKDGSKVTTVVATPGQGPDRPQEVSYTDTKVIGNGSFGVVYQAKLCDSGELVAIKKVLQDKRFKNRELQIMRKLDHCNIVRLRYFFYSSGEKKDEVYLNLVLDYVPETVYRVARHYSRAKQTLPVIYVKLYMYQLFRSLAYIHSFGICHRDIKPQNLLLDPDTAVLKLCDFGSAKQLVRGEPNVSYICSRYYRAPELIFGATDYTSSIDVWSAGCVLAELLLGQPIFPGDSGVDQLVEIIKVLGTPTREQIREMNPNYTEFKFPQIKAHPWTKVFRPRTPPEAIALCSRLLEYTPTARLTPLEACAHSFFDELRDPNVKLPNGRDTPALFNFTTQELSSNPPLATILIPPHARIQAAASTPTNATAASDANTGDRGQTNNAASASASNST

In the case of `Cc1cc(-c2ccc3[nH]nc(C(=O)Nc4ccc(OC5CCN(C)CC5)cc4)c3c2)sn1` [Compound 164, 5-(3-Methylisothiazol-5-yl)-N-(4-((1-methylpiperidin-4-yl)oxy)phenyl)-1H-indazole-3-carboxamide], the EC50 [1] is reported as 1380 nM, the IC50 (DYRK1A kinase) is reported as 3 nM and the IC50 (GSK3β kinase) is reported as 88 nM. The EC50 [2] was 268 nM, the EC50 [3] was 305 nM and the EC50 (IL-6) was 1330 nM. The EC50 [4] was > 100000 nM and the “percent in parentheses under EC50 >100” value [4] was “(33.1%)”.

Compound `Cn1cc(-c2cc(F)c3[nH]nc(C(=O)Nc4ccc(CN5CCCC5)cc4)c3c2)cn1` [Compound 119, 7-Fluoro-5-(1-methyl-1H-pyrazol-4-yl)-N-(4-(pyrrolidin-1-ylmethyl)phenyl)-1H-indazole-3-carboxamide] has an EC50 [1] of 3060 nM, an IC50 (DYRK1A kinase) of 21 nM and an IC50 (GSK3β kinase) of 41 nM. The EC50 [2] was 1870 nM, the EC50 [3] was 315 nM and the EC50 (IL-6) was 1930 nM. It also gave an EC50 [4] of 14000 nM.

Compound `CN1CCC(Oc2cccc(NC(=O)c3n[nH]c4cc(F)c(-c5cnn(C)c5)cc34)c2)CC1` [Compound 151, 6-Fluoro-5-(1-methyl-1H-pyrazol-4-yl)-N-(3-((1-methylpiperidin-4-yl)oxy)phenyl)-1H-indazole-3-carboxamide] has an EC50 [1] of 113 nM, an IC50 (DYRK1A kinase) of 5 nM and an IC50 (GSK3β kinase) of 80 nM. For the same compound, the EC50 [2] was 258 nM, the EC50 [3] was > 10000 nM and the EC50 (IL-6) was 7370 nM. The EC50 [4] was > 100000 nM and the “percent in parentheses under EC50 >100” value [4] was “(3.5%)”.

Compound `Cn1cc(-c2ccc3[nH]nc(C(=O)NC45CC6CC(CC(C6)C4)C5)c3c2)cn1` [Compound 137, N-((3s,5s,7s)-Adamantan-1-yl)-5-(1-methyl-1H-pyrazol-4-yl)-1H-indazole-3-carboxamide] has an EC50 [1] of 4240 nM, an IC50 (DYRK1A kinase) of 8290 nM and an IC50 (GSK3β kinase) of 1340 nM. For the same compound, the EC50 [2] was 5220 nM, the EC50 [3] was 2090 nM and the EC50 (IL-6) was > 10000 nM. For the same compound, the EC50 [4] was 2480 nM.
